Assays:
Format in all cases: in vivo
Settings in all cases: post-emergence spray, evaluated after 13 days
[1] = system: Amaranthus retroflexus (AMARE); assay: Post-emergence efficacy, Amaranthus retroflexus
Method: (§1) B1 Post-Emergence Efficacy
(§2) Seeds of a variety of test species are shown in standard soil in pots:—Solanum nigrum (SOLNI), Amaranthus retroflexus (AMARE), Setaria faberi (SETFA), Echinochloa crus-galli (ECHCG), Ipomoea hederacea (IPOHE), Lolium perenne (LOLPE). After 8 days cultivation (post-emergence) under controlled conditions in a glasshouse (at 24/16° C., day/night; 14 hours light; 65% humidity), the plants are sprayed with an aqueous spray solution derived from the formulation of the technical active ingredient in acetone/water (50:50) solution containing 0.5% Tween 20 (polyoxyethylene sorbitan monolaurate, CAS RN 9005-64-5). Compounds are applied at 1000 and 62.5 g/ha. The test plants are then grown in a glasshouse under controlled conditions in a glasshouse (at 24/16° C., day/night; 14 hours light; 65% humidity) and watered twice daily. After 13 days, the test is evaluated for the percentage damage caused to the plant. The biological activities are assessed on a five point scale (5=80-100%; 4=60-79%; 3=40-59%; 2=20-39%; 1=0-19%).

Solanum nigrum (SOLNI) = assay: Post-emergence efficacy, Solanum nigrum
Method: as §1, §2

Setaria faberi (SETFA) = assay: Post-emergence efficacy, Setaria faberi
Method: as §1, §2

Lolium perenne (LOLPE) = assay: Post-emergence efficacy, Lolium perenne
Method: as §1, §2

[2] = system: Echinochloa crus-galli (ECHCG); assay: Post-emergence efficacy, Echinochloa crus-galli
Method: as §1, §2

[3] = system: Ipomoea hederacea (IPOHE); assay: Post-emergence efficacy, Ipomoea hederacea
Method: as §1, §2

SMILES	AMARE percentage damage caused to the plant (five point scale) ([1]; 62.5 g/ha)	AMARE percentage damage caused to the plant (five point scale) ([1]; 1000 g/ha)	SOLNI percentage damage caused to the plant (five point scale) (Solanum nigrum (SOLNI); 62.5 g/ha)	SOLNI percentage damage caused to the plant (five point scale) (Solanum nigrum (SOLNI); 1000 g/ha)	SETFA percentage damage caused to the plant (five point scale) (Setaria faberi (SETFA); 62.5 g/ha)	SETFA percentage damage caused to the plant (five point scale) (Setaria faberi (SETFA); 1000 g/ha)	LOLPE percentage damage caused to the plant (five point scale) (Lolium perenne (LOLPE); 62.5 g/ha)	LOLPE percentage damage caused to the plant (five point scale) (Lolium perenne (LOLPE); 1000 g/ha)	ECHCG percentage damage caused to the plant (five point scale) ([2]; 62.5 g/ha)	ECHCG percentage damage caused to the plant (five point scale) ([2]; 1000 g/ha)	IPOHE percentage damage caused to the plant (five point scale) ([3]; 62.5 g/ha)	IPOHE percentage damage caused to the plant (five point scale) ([3]; 1000 g/ha)
Cc1csc(COc2c(Cl)ccc(F)c2-c2c(O)c(C)nn(C)c2=O)n1 [Compound 1.34]	4 (4=60-79%)	5 (5=80-100%)	5 (5=80-100%)	5 (5=80-100%)	4 (4=60-79%)	5 (5=80-100%)	3 (3=40-59%)	4 (4=60-79%)	4 (4=60-79%)	5 (5=80-100%)	5 (5=80-100%)	5 (5=80-100%)
Cc1nn(C)c(=O)c(-c2c(Cl)c(Cl)cc(Cl)c2OCc2cnc(Cl)s2)c1O [Compound 5.01]	3 (3=40-59%)	5 (5=80-100%)	5 (5=80-100%)	5 (5=80-100%)	2 (2=20-39%)	5 (5=80-100%)	2 (2=20-39%)	5 (5=80-100%)	2 (2=20-39%)	5 (5=80-100%)	5 (5=80-100%)	5 (5=80-100%)

— patent publication US11330821B2, “Herbicidal compounds” (Syngenta Participations AG, priority 2015, dated 2022)
